Active and inactive are the calls of the source. The calls are words filed in the database; no cut-off is given here.
Tests used:
HEK293 [1] = experiment: Fold increase expressed as pmol of cAMP accumulation by the compound/basal level of cAMP produced by GLP1-7HEK cells at 25 uM; No activity; assay type: functional, cell-based; details: Homo sapiens
HEK293 [2] = experiment: Fold increase expressed as pmol of cAMP accumulation by the compound/basal level of cAMP produced by CGRP1-7HEK cells at 25 uM; No activity; assay type: functional, cell-based; details: Homo sapiens
HEK293 [3] = experiment: Fold increase expressed as pmol of cAMP accumulation by the compound/basal level of cAMP produced by GLU-1HEK cells at 25 uM; No activity; assay type: functional, cell-based; details: Homo sapiens
HEK293 [4] = experiment: Fold increase expressed as pmol of cAMP accumulation by the compound/basal level of cAMP produced by CTR-2HEK cells at 25 uM; assay type: functional, Homo sapiens
HEK293 [5] = experiment: Fold increase expressed as pmol of cAMP accumulation by the compound/basal level of cAMP produced by EPTH1-1HEK cells at 25 uM; No activity; assay type: functional, cell-based; details: Homo sapiens
HEK293 [6] = experiment: Fold increase expressed as pmol of cAMP accumulation by the compound/basal level of cAMP produced by GIP-1HEK cells at 25 uM; No activity; assay type: functional, cell-based; details: Homo sapiens
HEK293 [7] = experiment: Fold increase expressed as pmol of cAMP accumulation by the compound/basal level of cAMP produced at 25 uM in multiplex cell based assay; 4.5/5.7; assay type: functional, Homo sapiens
HEK293 [8] = experiment: In vitro cAMP accumulation in HEK 293 cells.; assay type: functional, cell-based; details: Homo sapiens
HEK293 [9] = experiment: Fold induction of cAMP accumulation in HEK 293 cells at 75u M.; assay type: functional, Homo sapiens
HEK293 [10] = experiment: Fold increase expressed as pmol of cAMP accumulation by the compound/basal level of cAMP produced at 25 uM in multiplex cell based assay; 4.7/4.0; assay type: functional, Homo sapiens
HEK293 [11] = experiment: Fold increase expressed as pmol of cAMP accumulation by the compound/basal level of cAMP produced at 25 uM in multiplex cell based assay; 5.1/4.4; assay type: functional, Homo sapiens
HEK293 [12] = experiment: Fold increase expressed as pmol of cAMP accumulation by the compound/basal level of cAMP produced at 25 uM in multiplex cell based assay; 4.7/3.2; assay type: functional, Homo sapiens
[13] = Bioavailability in rat after peroral administration at 30 mpk; assay type: ADME, organism-based; details: in vivo, po, 30 mg/kg, read-out: Bioavailabiility
monkey [14] = experiment: Bioavailability in monkey after intravenous administration at 1 mpk; details: in vivo, read-out: Bioavailabiility
[15] = Bioavailability in rat after intravenous administration at 1 mpk; assay type: ADME, organism-based; details: in vivo, read-out: Bioavailabiility
monkey [16] = experiment: Bioavailability in monkey after peroral administration at 10 mpk; details: in vivo, po, 10 mg/kg, read-out: Bioavailabiility
Rattus norvegicus = experiment: Bioavailability in rat after peroral administration at 100 mpk; assay type: functional, organism-based
[17] = Bioavailability in rat after intravenous administration at 2 mpk; assay type: ADME, organism-based; details: in vivo, read-out: Bioavailabiility

Compound	EC50 (HEK293 [8]) [µM]	Fold-induction (HEK293 [9])	also measured
CC1=C(C(=O)OC2CCCC2C)C(c2ccccc2)NC(=O)N1 (centres undefined)	–	–	Fold-induction (HEK293 [1]): inactive; Fold-induction (HEK293 [2]): inactive; Fold-induction (HEK293 [3]): inactive; Fold-induction (HEK293 [4]): 8; Fold-induction (HEK293 [5]): inactive; Fold-induction (HEK293 [6]): inactive; Fold-induction (HEK293 [7]): 4.5
CC1=C(C(=O)OCc2ccccc2)C(c2ccccc2)NC(=O)N1 (centres undefined)	> 20	17	–
CCCC1=C(C(=O)OCc2ccc(C(=O)O)cc2)C(c2cccc(C)c2)NC(=O)N1 (centres undefined)	3.4	61	–
CCCC1=C(C(=O)OCc2ccc(C(=O)N(C)C)cc2)C(c2cccc(C)c2)NC(=O)N1 (centres undefined)	3.4	40	–
CCCC1=C(C(=O)OCc2ccc(C(=O)NCCCN(C)C)cc2)C(c2cccc(C)c2)NC(=O)N1 (centres undefined)	1.4	55	–
CCCC1=C(C(=O)OCc2ccc(C(=O)OC)cc2)C(c2cccc(C)c2)NC(=O)N1 (centres undefined)	1	42	–
CCC1=C([N+](=O)[O-])C(c2ccc3c(c2)OCO3)NC(=O)N1 (centres undefined)	–	–	Fold-induction (HEK293 [1]): inactive; Fold-induction (HEK293 [2]): inactive; Fold-induction (HEK293 [10]): 4.7; Fold-induction (HEK293 [3]): inactive; Fold-induction (HEK293 [4]): 12; Fold-induction (HEK293 [5]): inactive; Fold-induction (HEK293 [6]): inactive
CCCC1=C(C(=O)OCC)C(c2cccc(Cl)c2)NC(=O)N1 (centres undefined)	6.8	21	–
CCCC1=C(C(=O)OCc2ccc(C(=O)N(C)CCN3CCCCC3)cc2)C(c2cccc(C)c2)NC(=O)N1 (centres undefined)	4.4	55	–
CCCC1=C(C(=O)OCc2ccc(C(=O)NCCCN3CCCCC3)cc2)C(c2cccc(C)c2)NC(=O)N1 (centres undefined)	1.9	52	–
CCCC1=C(C(=O)OCc2ccccc2)C(c2cccc(C)c2)NC(=O)N1 (centres undefined)	5.2	36	–
CC1=C(C(=O)OCC(F)(F)C(F)(F)F)C(c2ccccc2)NC(=O)N1 (centres undefined)	–	–	Fold-induction (HEK293 [1]): inactive; Fold-induction (HEK293 [2]): inactive; Fold-induction (HEK293 [11]): 5.1; Fold-induction (HEK293 [3]): inactive; Fold-induction (HEK293 [4]): 9; Fold-induction (HEK293 [5]): inactive; Fold-induction (HEK293 [6]): inactive
C=CCOC(=O)C1=C(C)NC(=O)NC1c1ccc2c(c1)OCO2 (centres undefined)	–	–	Fold-induction (HEK293 [1]): inactive; Fold-induction (HEK293 [2]): inactive; Fold-induction (HEK293 [12]): 4.7; Fold-induction (HEK293 [3]): inactive; Fold-induction (HEK293 [4]): 8; Fold-induction (HEK293 [5]): inactive; Fold-induction (HEK293 [6]): inactive
COc1ccc(COC(=O)C2=C(C(C)C)NC(=O)NC2c2cccc(C)c2)cc1 (centres undefined)	5.8	33	–
CCCC1=C(C(=O)OCc2ccc(C(=O)NCCN3CCOCC3)cc2)C(c2cccc(C)c2)NC(=O)N1 (centres undefined)	4.3	50	–
CCCC1=C(C(=O)OCc2ccc(C(=O)NCCN3CCCCC3)cc2)C(c2cccc(C)c2)NC(=O)N1 (centres undefined)	1.3	51	bioavailability [13]: 65%; bioavailability (monkey [14]): 13%; bioavailability [15]: 65%; bioavailability (monkey [16]): 13%
CCCC1=C(C(=O)OCC)C(c2cccc(C)c2)NC(=O)N1 (centres undefined)	7.5	35	bioavailability (Rattus norvegicus): 2%; bioavailability [17]: 2%
CCCC1=C(C(=O)OCc2ccc(C(=O)NCCCN3CCN(C)CC3)cc2)C(c2cccc(C)c2)NC(=O)N1 (centres undefined)	4.3	55	–
CCCCCC1=C(C(=O)OCC)C(c2cccc(C)c2)NC(=O)N1 (centres undefined)	–	31	–
CCCC1=C(C(=O)OCC)C(c2cc(C)cc(C)c2)NC(=O)N1 (centres undefined)	9.5	34	–
CC(C)C[C@H](NC(=O)[C@H](CCCCN)NC(=O)CNC(=O)[C@H](CC(C)C)NC(=O)[C@@H](NC(=O)[C@@H]1CSSC[C@H](N)C(=O)N[C@@H](CO)C(=O)N[C@@H](CC(N)=O)C(=O)N[C@@H](CC(C)C)C(=O)N[C@@H](CO)C(=O)N[C@@H]([C@@H](C)O)C(=O)N1)C(C)C)C(=O)N[C@@H](CO)C(=O)N[C@@H](CCC(N)=O)C(=O)N[C@@H](CCC(=O)O)C(=O)N[C@@H](CC(C)C)C(=O)N[C@@H](Cc1c[nH]cn1)C(=O)N[C@@H](CCCCN)C(=O)N[C@@H](CC(C)C)C(=O)N[C@@H](CCC(N)=O)C(=O)N[C@H](C(=O)N[C@@H](Cc1ccc(O)cc1)C(=O)N1CCC[C@H]1C(=O)N[C@@H](CCCNC(=N)N)C(=O)N[C@H](C(=O)N[C@@H](CC(N)=O)C(=O)N[C@H](C(=O)NCC(=O)N[C@@H](CO)C(=O)NCC(=O)N[C@H](C(=O)N1CCC[C@H]1C(N)=O)[C@@H](C)O)[C@@H](C)O)[C@@H](C)O)[C@@H](C)O [CALCITONIN SALMON]	0.003	40	–
CC1=C(C(=O)OCc2ccccc2)C(c2cccc(C)c2)NC(=O)N1 (centres undefined)	15	23	–
